Results published in EP2975030B1, “DIHYDROPYRIDAZINE-3,5-DIONE DERIVATIVE” (Chugai Seiyaku Kabushiki Kaisha, priority 2013, dated 2014).

Key:
[1] = system: rat small-intestinal brush border membrane vesicles; test: Inhibitory effect on 33PO4 uptake into rat small-intestinal brush border membrane vesicles (rapid filtration method); assay type: biochemical, Wistar female rat; details: 1 µM test compound; 33PO4 uptake into rat small-intestinal BBMVs, 60 seconds
In short: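 Uptake was terminated by ice-cold 110 mM NaCl, 1 mM KH2PO4, 10 mM HEPES (pH 7.5) buffer and immediate suction filtration, then washing. Using rat small-intestinal BBMVs, retained 33PO4 was quantified by liquid scintillation counting as transport activity.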

human NaPi-IIb = test: Inhibitory effect on 33PO4 uptake into human NaPi-IIb-expressing cell; assay type: cell-based; details: CHO cells stably expressing human NaPi-IIb, 1, 3, 10, or 30 µM
Description: CHO cells were transfected with human NaPi-IIb expression plasmids, and a stably human NaPi-IIb-expressing cell line was obtained using G418. The human NaPi-IIb-expressing cells were inoculated to a 96-well plate and incubated overnight in a CO2 incubator. The medium was replaced with buffer A (145 mM choline chloride, 3 mM KCl, 1 mM CaCl2, 0.5 mM MgCl2, 5 mM glucose, and 5 mM MES (pH 6.5)) and then replaced with buffer B (145 mM NaCl, 3 mM KCl, 1 mM CaCl2, 0.5 mM MgCl2, 5 mM glucose, and 5 mM MES (pH 6.5)) supplemented with each test compound at a final concentration of 1,3, 10, or 30 µM or buffer A supplemented with DMSO. After a given time, a 1/20 volume of buffer A containing ^33PO4 was added thereto and reacted at room temperature. After washing with ice-cold buffer A, a liquid scintillator was added to each reaction mixture, and the amount of ^33PO4 uptake was measured using TopCount. The rate of inhibition was determined according to the following expression: [formula]

[2] = system: adenine-induced renal failure rat; test: Suppressive effect on rise in serum phosphorus concentration of adenine-induced renal failure rat (0.1% in feed, 3 days); assay type: in vivo, Wistar male rat; details: feed or water, 72 h, rate of suppression of a rise in serum phosphorus concentration, 0.1% of mass concentration in feed
Description: Test Example 5: Suppressive effect on rise in serum phosphorus concentration of adenine-induced renal failure rat Adenine was forcedly administered orally to each Wistar male rat (7-8 weeks old) to impair renal functions and thereby prepare a hyperphosphatemia model ([…], Nagano N, Burke SK, Fukushima N. Sevelamer hydrochloride prevents ectopic calcification and renal osteodystrophy in chronic renal failure rats. Kidney Int. 2003 Aug; 64 (2): 441-50). Each test compound was mixed at a ratio of 0.1% of mass concentration with feed. The animal was fed with a given amount of the feed for 3 days. A group given feed non-supplemented with a test compound was used as a reference pathological group, and an adenine-unadministered group given feed non-supplemented with a test compound was used as a normal group. 3 days after the start of administration of the test compound, blood was collected from the jugular vein, and serum was collected. Serum phosphorus concentrations were measured by the Fiske-Subbarow method. The rate of suppression of a rise in serum phosphorus concentration was determined according to the following expression: Rate (%) of suppression of a rise in serum phosphorus concentration = (1-[([…]-treatedpathologicalgroup); -(Serumphosphorusconcentrationofthenormalgroup)]/; [(Serumphosphorusconcentrationofthereferencepathologicalgroup)-(Serumphosphorusconcentrationofthenormalgroup)]) × 100 [formula] As a result, each test compound was confirmed to have a suppressive effect on a rise in serum phosphorus concentration. […]

| Compound | Rate of uptake inhibition (%) (1 µM) [1] | IC50 (human NaPi-IIb) [µM] | inhibition in vivo at 0.1 %, 0.1 % in feed [2] [%] |
| --- | --- | --- | --- |
| CN(C)S(=O)(=O)N1CCC(c2cc(C(F)(F)F)ccc2NC(=O)C2=C(O)[C@@]3(C)CCCN3N(Cc3cccc(F)c3F)C2=O)CC1 [Example 110] | 57 | 19.8 |  |
| C[C@]12CCCN1N(Cc1ccc(OCCCOC[C@H](O)CO)c(F)c1F)C(=O)C(C(=O)Nc1ccc(C(F)(F)F)cc1-c1ccc(C(F)(F)F)nc1)=C2O [Example 147, (4aR)-1-[[4-[3-[(2R)-2,3-Dihydroxypropoxy]propoxy]-2,3-difluorophenyl]methyl]-4-hydroxy-4a-methyl-2-oxo-N-[4-(trifluoromethyl)-2-[6-(trifluoromethyl)pyridin-3-yl]phenyl]-6,7-dihydro-5H-pyrrolo[1,2-b]pyridazine-3-carboxamide] | 57 |  | 35 |
| C[C@]12CCCN1N(Cc1ccc(OCCCCOC[C@H](O)CO)c(F)c1F)C(=O)C(C(=O)Nc1ccc(C(F)(F)F)cc1-c1cc(C(F)(F)F)ncn1)=C2O [Example 152, (4aR)-1-[[4-[4-[(2R)-2,3-Dihydroxypropoxy]butoxy]-2,3-difluorophenyl]methyl]-4-hydroxy-4a-methyl-2-oxo-N-[4-(trifluoromethyl)-2-[6-(trifluoromethyl)pyrimidin-4-yl]phenyl]-6,7-dihydro-5H-pyrrolo[1,2-b]pyridazine-3-carboxamide] | 54 |  | 26 |
| C[C@]12CCCN1N(Cc1ccc(OCCCCCCOC[C@H](O)CO)c(F)c1F)C(=O)C(C(=O)Nc1cnc(C(F)(F)F)nc1-c1ccc(C(F)(F)F)nc1)=C2O [Example 156, (4aR)-1-[[4-[6-[(2R)-2,3-Dihydroxypropoxy]hexoxy]-2,3-difluorophenyl]methyl]-4-hydroxy-4a-methyl-2-oxo-N-[2-(trifluoromethyl)-4-[6-(trifluoromethyl)pyridin-3-yl]pyrimidin-5-yl]-6,7-dihydro-5H-pyrrolo[1,2-b]pyridazine-3-carboxamide] | 59 |  | 21 |
| C[C@]12CCCN1N(Cc1ccc(OCCN3CCOCC3)c(F)c1F)C(=O)C(C(=O)Nc1ccc(C(F)(F)F)cc1-c1cc(C(F)(F)F)ncn1)=C2O [Example 157, (4aR)-1-[[2,3-Difluoro-4-(2-morpholin-4-ylethoxy)phenyl]methyl]-4-hydroxy-4a-methyl-2-oxo-N-[4-(trifluoromethyl)-2-[6-(trifluoromethyl)pyrimidin-4-yl]phenyl]-6,7-dihydro-5H-pyrrolo[1,2-b]pyridazine-3-carboxamide] | 89 |  | 30 |
| C[C@]12CCCN1N(Cc1ccc(CN3CCOCC3)c(F)c1F)C(=O)C(C(=O)Nc1ccc(C(F)(F)F)cc1-c1ccc(C(F)(F)F)nc1)=C2O.Cl [Example 164, (4aR)-1-[[2,3-Difluoro-4-(morpholin-4-ylmethyl)phenyl]methyl]-4-hydroxy-4a-methyl-2-oxo-N-[4-(trifluoromethyl)-2-[6-(trifluoromethyl)pyridin-3-yl]phenyl]-6,7-dihydro-5H-pyrrolo[1,2-b]pyridazine-3-carboxamide; hydrochloride] | 64 |  | 14 |
| C[C@]12CCCN1N(Cc1cccc(Cl)c1F)C(=O)C(C(=O)Nc1cc(F)c(Br)c(F)c1)=C2O [Example 196, (4aR)-N-(4-Bromo-3,5-difluorophenyl)-1-[(3-chloro-2-fluorophenyl)methyl]-4-hydroxy-4a-methyl-2-oxo-6,7-dihydro-5H-pyrrolo[1,2-b]pyridazine-3-carboxamide] | 90 |  | 35 |
| CN1[C@@H](C(C)(C)C)C(O)=C(C(=O)Nc2ccc(C(F)(F)F)cc2-c2cc(C(F)(F)F)ncn2)C(=O)N1Cc1ccc(OCCN2CCOCC2)c(F)c1F [Example 264, (3S)-3-tert-Butyl-1-[[2,3-difluoro-4-(2-morpholin-4-ylethoxy)phenyl]methyl]-4-hydroxy-2-methyl-6-oxo-N-[4-(trifluoromethyl)-2-[6-(trifluoromethyl)pyrimidin-4-yl]phenyl]-3H-pyridazine-5-carboxamide] | 48 |  | 15 |
| CN1[C@@H](C(C)(C)C)C(O)=C(C(=O)Nc2ccc(Cl)cc2-c2cc(C(F)(F)F)ncn2)C(=O)N1Cc1ccc(OCCN2CCOCC2)c(F)c1F [Example 265, (3S)-3-tert-Butyl-N-[4-chloro-2-[6-(trifluoromethyl)pyrimidin-4-yl]phenyl]-1-[[2,3-difluoro-4-(2-morpholin-4-ylethoxy)phenyl]methyl]-4-hydroxy-2-methyl-6-oxo-3H-pyridazine-5-carboxamide] | 52 |  | 11 |
| CN1[C@@H](C(C)(C)C)C(O)=C(C(=O)Nc2ccc(Cl)cc2-c2ccc(C(F)(F)F)nc2)C(=O)N1Cc1ccc(OCCN2CCOCC2)c(F)c1F [Example 267, (3S)-3-tert-Butyl-N-[4-chloro-2-[6-(trifluoromethyl)pyridin-3-yl]phenyl]-1-[[2,3-difluoro-4-(2-morpholin-4-ylethoxy)phenyl]methyl]-4-hydroxy-2-methyl-6-oxo-3H-pyridazine-5-carboxamide] | 71 |  | 18 |
| CSc1ccc(-c2cc(Cl)ccc2NC(=O)C2=C(O)[C@H](C(C)(C)C)N(C)N(Cc3ccc(OCCN4CCOCC4)c(F)c3F)C2=O)cn1 [Example 269, (3S)-3-tert-Butyl-N-[4-chloro-2-(6-methylsulfanylpyridin-3-yl)phenyl]-1-[[2,3-difluoro-4-(2-morpholin-4-ylethoxy)phenyl]methyl]-4-hydroxy-2-methyl-6-oxo-3H-pyridazine-5-carboxamide] | 80 |  | 15 |
| Cc1c(C#N)ncnc1-c1cc(C(F)(F)F)ccc1NC(=O)C1=C(O)[C@H](C(C)(C)C)N(C)N(Cc2ccc(OCCN3CCOCC3)c(F)c2F)C1=O [Example 270, (3S)-3-tert-Butyl-N-[2-(6-cyano-5-methylpyrimidin-4-yl)-4-(trifluoromethyl)phenyl]-1-[[2,3-difluoro-4-(2-morpholin-4-ylethoxy)phenyl]methyl]-4-hydroxy-2-methyl-6-oxo-3H-pyridazine-5-carboxamide] | 75 |  | 20 |
| CN1N(Cc2ccc(OCCN3CCOCC3)c(F)c2F)C(=O)C(C(=O)Nc2ccc(C(F)(F)F)cc2-c2cc(C(F)(F)F)ncn2)=C(O)C12CCC2 [Example 317, 6-[[2,3-Difluoro-4-(2-morpholin-4-ylethoxy)phenyl]methyl]-9-hydroxy-5-methyl-7-oxo-N-[4-(trifluoromethyl)-2-[6-(trifluoromethyl)pyrimidin-4-yl]phenyl]-5,6-diazaspiro[3.5]non-8-ene-8-carboxamide] | 57 |  | 22 |
| CN1N(Cc2ccc(OCCN3CCOCC3)c(F)c2F)C(=O)C(C(=O)Nc2ccc(C(F)(F)F)cc2-c2cc(C(F)(F)F)ncn2)=C(O)C12CCCC2 [Example 318, 7-[[2,3-Difluoro-4-(2-morpholin-4-ylethoxy)phenyl]methyl]-10-hydroxy-6-methyl-8-oxo-N-[4-(trifluoromethyl)-2-[6-(trifluoromethyl)pyrimidin-4-yl]phenyl]-6,7-diazaspiro[4.5]dec-9-ene-9-carboxamide] | 43 |  | 32 |
| CN1N(Cc2ccc(OCCCCC(=O)O)c(F)c2F)C(=O)C(C(=O)Nc2ccc(C(F)(F)F)cc2-c2cc(C(F)(F)F)ncn2)=C(O)C12CCCC2 [Example 333, 5-[2,3-Difluoro-4-[[10-hydroxy-6-methyl-8-oxo-9-[[4-(trifluoromethyl)-2-[6-(trifluoromethyl)pyrimidin-4-yl]phenyl]carbamoyl]-6,7-diazaspiro[4.5]dec-9-en-7-yl]methyl]phenoxy]pentanoic acid] | 29 |  | 8 |
| COC[C@@H]1CCCN1CCOc1ccc(CN2C(=O)C(C(=O)Nc3ccc(C(F)(F)F)cc3-c3cc(C(F)(F)F)ncn3)=C(O)C3(CCC3)N2C)c(F)c1F [Example 345, 6-[[2,3-Difluoro-4-[2-[(2S)-2-(methoxymethyl)pyrrolidin-1-yl]ethoxy]phenyl]methyl]-9-hydroxy-5-methyl-7-oxo-N-[4-(trifluoromethyl)-2-[6-(trifluoromethyl)pyrimidin-4-yl]phenyl]-5,6-diazaspiro[3.5]non-8-ene-8-carboxamide] | 73 |  | 19 |
